According to the supplement of paper PMC10307832:

Legend:
Experiment in all cases: relative viability (nuclei count vs DMSO), 5 days (fraction); higher = more cells survive
[1] = compound: CC1=NN=C(O1)C2=NN=C(C=C2)N3CCC(CC3)OC4=C(C=CC(=C4)F)Cl + NC(=O)Nc1cc(-c2cccc(F)c2)sc1C(=O)N[C@H]1CCCNC1 [AZD7762] (partner 0.2 µM)
Procedure, shortened: (§1)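 Lung cancer cell lines, seeded in 1536-well plates, were treated the following day by pin tool with a single drug or with five library-drug doses (not always all listed) in √10 steps on top of a fixed anchor-drug dose. Cells were fixed and nuclei stained in one step after 5 days, and nuclei were counted. Relative viability is the nuclei count for treated wells divided by that for vehicle wells, reported as medians of duplicate plates.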

Tosedostat + Bortezomib = compound: CC(C)C[C@@H](C(=O)N[C@H](C(=O)OC1CCCC1)c1ccccc1)[C@H](O)C(=O)NO [Tosedostat] + CC(C)C[C@H](NC(=O)[C@H](Cc1ccccc1)NC(=O)c1cnccn1)B(O)O [Bortezomib] (partner 0.002 µM)
Procedure, shortened: as §1

[2] = compound: CC1=NN=C(O1)C2=NN=C(C=C2)N3CCC(CC3)OC4=C(C=CC(=C4)F)Cl + N=C(N)NC(=N)NCCc1ccccc1 [Phenformin] (partner 250 µM)
Procedure, shortened: as §1

Tosedostat + Vorinostat = compound: CC(C)C[C@@H](C(=O)N[C@H](C(=O)OC1CCCC1)c1ccccc1)[C@H](O)C(=O)NO [Tosedostat] + O=C(CCCCCCC(=O)Nc1ccccc1)NO [Vorinostat] (partner 1 µM)
Procedure, shortened: as §1

Cell Line	relative viability ([1]; first compound 0.253 µM)	relative viability ([1]; first compound 0.8 µM)	relative viability ([1]; first compound 2.53 µM)	relative viability ([1]; first compound 8 µM)	relative viability (Tosedostat + Bortezomib; first compound 0.02 µM)	relative viability (Tosedostat + Bortezomib; first compound 0.06325 µM)	relative viability (Tosedostat + Bortezomib; first compound 0.2 µM)	relative viability (Tosedostat + Bortezomib; first compound 0.6325 µM)	relative viability (Tosedostat + Bortezomib; first compound 2 µM)	relative viability ([2]; first compound 0.253 µM)	relative viability ([2]; first compound 0.8 µM)	relative viability ([2]; first compound 2.53 µM)	relative viability ([2]; first compound 8 µM)	relative viability (Tosedostat + Vorinostat; first compound 0.02 µM)	relative viability (Tosedostat + Vorinostat; first compound 0.06325 µM)	relative viability (Tosedostat + Vorinostat; first compound 0.2 µM)	relative viability (Tosedostat + Vorinostat; first compound 0.6325 µM)	relative viability (Tosedostat + Vorinostat; first compound 2 µM)
HCC-78	0.457	0.483	0.463	0.373	0.496	0.497	0.473	0.555	0.563	0.619	0.59	0.541	0.497	0.472	0.42	0.452	0.501	0.486
NCI-H1666	0.686	0.765	0.79	0.715	0.753	0.849	0.766	0.735	0.698	0.509	0.57	0.555	0.584	1.06	1.16	1.06	1.04	1.05
HCC-15	0.733	0.571	0.639	0.608	1.19	0.98	0.956	0.869	0.998	0.441	0.396	0.427	0.428	0.941	0.849	0.826	0.757	0.745
EKVX	0.517	0.434	0.465	0.535	0.974	0.995	1.03	0.946	0.823	0.211	0.223	0.236	0.227	0.722	0.647	0.764	0.688	0.773
NCI-H2347	0.56	0.572	0.637	0.489	1.25	1.36	1.35	1.05	0.694	–	0.382	0.493	0.359	0.496	0.451	0.681	0.498	0.575
LK-2	0.622	0.366	0.308	0.294	–	–	–	–	–	0.576	0.433	0.661	0.38	0.34	0.364	0.24	0.266	0.251
NCI-H1651	0.423	0.412	0.448	0.386	0.973	1.03	0.834	0.834	0.914	0.367	0.487	0.368	0.325	0.564	0.609	0.548	0.556	0.472
COR-L23	–	–	–	–	1.22	0.918	0.914	0.969	1.1	0.423	0.385	0.425	0.363	0.57	0.454	0.38	0.343	0.399
ABC-1	0.852	0.712	0.597	0.45	0.289	0.344	0.328	0.274	0.306	0.197	0.224	0.291	0.276	1.33	1.29	0.954	0.974	0.693
SW 900	–	0.563	0.596	0.66	–	–	–	–	–	–	–	0.827	0.562	0.37	0.35	0.488	0.515	0.568
